Counter-ions that a name gives are not always drawn.
What was measured:
5-HT transporter = target: T1, 5-HT transporter (Rattus norvegicus, UniProt P31652); assay: 5-HT uptake inhibition, synaptosomes from rat brain (medulla and pons); type: biochemical
T1 construct: from tissue; host or cells: rat brain (medulla and pons), synaptosomes, P2 fraction
In short: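 Freshly isolated rat brain synaptosomes (P2 fraction): hypothalamus for NA uptake, medulla/pons for 5-HT uptake. Uptake of [3H]-NA (7.5 min) or [3H]-5-HT (5 min) at room temperature under O2, stopped by filtration over GF/B. Retained radioactivity counted by scintillation.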

NA transporter = target: T2, NA transporter (Rattus norvegicus, UniProt Q9WTR4); assay: Noradrenalin (NA) uptake inhibition, synaptosomes from rat brain (hypothalamus); type: biochemical
T2 construct: from tissue; host or cells: rat brain (hypothalamus), synaptosomes, P2 fraction
Source text: b) Method for Determining Noradrenalin and 5-HT Uptake Inhibition:
Synaptosomes from rat brain regions are freshly isolated for in vitro studies, as described in the publication “The isolation of nerve endings from brain” by E. G. Gray and V. P. Whittaker, J. Anatomy 96, pages 79-88, 1962. The corresponding literature description is hereby introduced as a reference and is deemed to be part of the disclosure.
The tissue (hypothalamus for the determination of noradrenalin uptake inhibition and medulla and pons for the determination of 5-HT uptake inhibition) is homogenised in ice-cooled 0.32 M sucrose (100 mg of tissue/1 mL) in a glass homogeniser with Teflon pestle using five complete up and down strokes at 840 revolutions/minute.
The homogenate is centrifuged at 4° C. for 10 minutes at 1000 g. After subsequent centrifugation at 17000 g for 55 minutes, the synaptosomes (P2 fraction) are obtained, which are resuspended in 0.32 M […] (0.5 mL/100 mg of original weight).
The particular uptake is measured in a 96-well microtitre plate. The volume is 250 μL and the incubation proceeds at room temperature (approx. 20-25° C.) under an O2 atmosphere.
The incubation time is 7.5 minutes for [^3H]-NA and 5 minutes for [^3H]-5-HT. The 96 samples are then filtered through a Unifilter GF/B® microtitre plate (Packard) and washed with 200 mL of incubated buffer using a “Brabdel MPXRI-96T Cell-Harvester”. The Unifilter GF/B plate is dried for 1 hour at 55° C. The plate is then sealed with a Back Seal® (Packard) and 35 μL of scintillation fluid are added per well (Ultima Gold®, Packard). After sealing with a top Seal® (Packard) and establishing an equilibrium (around 5 hours), radioactivity is determined in a “Trilux 1450 Microbeta” (Wallac).
The quantity of protein used in the above determination corresponds to the values known from the literature, as for example described in “Protein measurement with the folin phenol reagent”, Lowry et al., J. Biol. Chem., 193, 265-275, 1951.
A detailed description of the method may additionally be found in the literature, for example in M. Ch. Frink, H.-H. Hennies, W. Engelberger, M. Haurand and B. Wilffert (1996) Arzneim.-Forsch./Drug Res. 46 (III), 11, 1029-1036.
The following characteristics were determined for the NA or 5-HT transporter: […]

T1 sequence (P31652 whole entry): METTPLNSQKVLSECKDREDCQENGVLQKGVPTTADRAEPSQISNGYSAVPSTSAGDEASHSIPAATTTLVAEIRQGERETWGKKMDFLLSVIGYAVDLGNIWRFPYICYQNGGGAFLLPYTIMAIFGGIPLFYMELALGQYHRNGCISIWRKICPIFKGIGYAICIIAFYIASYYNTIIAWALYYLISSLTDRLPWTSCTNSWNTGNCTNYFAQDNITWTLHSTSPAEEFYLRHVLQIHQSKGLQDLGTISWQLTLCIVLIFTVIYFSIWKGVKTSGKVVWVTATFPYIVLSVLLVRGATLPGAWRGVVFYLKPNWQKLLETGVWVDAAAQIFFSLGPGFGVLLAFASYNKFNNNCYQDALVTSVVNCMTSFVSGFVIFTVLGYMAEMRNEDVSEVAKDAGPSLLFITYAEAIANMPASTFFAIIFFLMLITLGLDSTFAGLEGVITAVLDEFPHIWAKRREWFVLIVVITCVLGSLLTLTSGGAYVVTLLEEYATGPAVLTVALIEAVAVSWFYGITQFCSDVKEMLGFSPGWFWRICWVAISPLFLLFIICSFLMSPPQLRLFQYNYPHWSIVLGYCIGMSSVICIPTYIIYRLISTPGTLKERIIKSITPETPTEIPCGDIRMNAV
T2 sequence (Q9WTR4 1-597): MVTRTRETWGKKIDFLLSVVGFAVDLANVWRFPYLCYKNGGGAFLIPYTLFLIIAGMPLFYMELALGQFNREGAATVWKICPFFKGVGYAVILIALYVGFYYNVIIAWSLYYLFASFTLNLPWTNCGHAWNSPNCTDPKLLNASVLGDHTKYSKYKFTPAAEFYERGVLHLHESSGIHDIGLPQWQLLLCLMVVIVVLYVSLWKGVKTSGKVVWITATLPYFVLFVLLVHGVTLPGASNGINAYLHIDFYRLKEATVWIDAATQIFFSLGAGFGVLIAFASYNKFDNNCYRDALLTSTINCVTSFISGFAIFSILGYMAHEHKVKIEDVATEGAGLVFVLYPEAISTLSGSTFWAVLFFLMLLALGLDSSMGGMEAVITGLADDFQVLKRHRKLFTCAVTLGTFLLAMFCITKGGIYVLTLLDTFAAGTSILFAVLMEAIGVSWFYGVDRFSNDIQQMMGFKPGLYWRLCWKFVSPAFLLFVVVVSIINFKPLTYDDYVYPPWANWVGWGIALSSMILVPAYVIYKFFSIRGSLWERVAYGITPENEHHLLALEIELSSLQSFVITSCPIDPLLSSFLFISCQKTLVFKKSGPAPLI

Compound | 5-HT uptake (rat), 10 μM, % inhibition (5-HT transporter) | NA Uptake (rat), 10 μM, % inhibition (NA transporter) | inhibition at 10 µM (5-HT transporter) | inhibition at 10 µM (NA transporter)
Cc1ccc(NC(=O)N2CCc3onc(C(=O)NCCc4ccccc4)c3C2)cc1[N+](=O)[O-] [Example 4, 6,7-dihydro-4H-isoxazolo[4,5-c]pyridine-3,5-dicarboxylic acid 5-[(4-methyl-3-nitro-phenyl) amide] 3-(phenethyl amide)] | 45% | 57% | – | –
O=C(NCCc1ccccc1)c1noc2c1CN(C(=O)Nc1cccc(F)c1)CC2 [Example 8, 6,7-dihydro-4H-isoxazolo[4,5-c]pyridine-3,5-dicarboxylic acid 5-[(3-fluorophenyl) amide] 3-(phenethyl amide)] | 54% | 66% | – | –
O=C(NCc1ccccc1)c1noc2c1CN(C(=O)NCCc1ccccc1)CC2 [Example 10, 6,7-dihydro-4H-isoxazolo[4,5-c]pyridine-3,5-dicarboxylic acid 3-benzyl amide 5-(phenethyl amide)] | 51% | 42% | – | –
N#Cc1cccc(NC(=O)N2CCc3onc(C(=O)NCc4cccs4)c3C2)c1 [Example 12, 6,7-dihydro-4H-isoxazolo[4,5-c]pyridine-3,5-dicarboxylic acid 5-[(3-cyano-phenyl) amide]3-[(thiophen-2-ylmethyl) amide]] | 51% | 46% | – | –
CCOc1ccc(NC(=O)N2CCc3onc(C(=O)Nc4ccccc4)c3C2)cc1 [Example 13, 6,7-dihydro-4H-isoxazolo[4,5-c]pyridine-3,5-dicarboxylic acid 5-[(4-ethoxy-phenyl) amide] 3-phenyl amide] | 48% | 51% | – | –
CC(NC(=O)N1CCc2onc(C(=O)NCCc3ccccc3)c2C1)c1cccc2ccccc12 (stereo not shown) [Example 18, 6,7-dihydro-4H-isoxazolo[4,5-c]pyridine-3,5-dicarboxylic acid 5-[(1-naphthalen-1-yl-ethyl) amide]3-(phenethyl amide)] | 42% | 47% | – | –
O=C(O)CC1(CC(=O)N2CCc3onc(C(=O)Nc4ccccc4)c3C2)CCCC1 [Example 28, {1-[2-oxo-2-(3-phenylcarbamoyl-6,7-dihydro-4H-isoxazolo[4,5-c]pyridin-5-yl)-ethyl]-cyclopentyl}acetic acid] | – | – | 55% | 44%
O=C(NC1CCN(Cc2ccc3ccccc3c2)C1)c1noc2c1CN(S(=O)(=O)c1ccccc1)CC2 (stereo not shown) [Example 33, 5-benzenesulfonyl-4,5,6,7-tetrahydro-isoxazolo[4,5-c]pyridine-3-carboxylic acid (1-naphthalen-2-ylmethyl-pyrrolidin-3-yl) amide] | – | – | 74% | 88%
COc1ccc(CNC(=O)c2noc3c2CN(S(=O)(=O)c2ccccc2)CC3)cc1OC [Example 47, 5-benzenesulfonyl-4,5,6,7-tetrahydro-isoxazolo[4,5-c]pyridine-3-carboxylic acid 3,4-dimethoxy-benzyl amide] | – | – | 68% | 67%
O=C(c1noc2c1CN(S(=O)(=O)c1cc(Cl)ccc1Cl)CC2)N(CCc1ccccc1)Cc1ccccc1 [Example 59, 5-(2,5-dichloro-benzenesulfonyl)-4,5,6,7-tetrahydro-isoxazolo[4,5-c]pyridine-3-carboxylic acid benzyl-phenethyl amide] | – | – | 71% | 79%
O=C(c1noc2c1CN(S(=O)(=O)c1cccc(C(F)(F)F)c1)CC2)N(CCc1ccccc1)Cc1ccccc1 [Example 68, 5-(3-trifluoromethyl-benzenesulfonyl)-4,5,6,7-tetrahydro-isoxazolo[4,5-c]pyridine-3-carboxylic acid benzyl-phenethyl amide] | – | – | 63% | 84%
O=C(c1noc2c1CN(S(=O)(=O)c1ccccc1)CC2)N1CCN(CC=Cc2ccccc2)CC1 [Example 97, (5-benzenesulfonyl-4,5,6,7-tetrahydro-isoxazolo[4,5-c]pyridin-3-yl)-[4-(3-phenyl-allyl)-piperazin-1-yl]-methanone] | – | – | 67% | 75%
O=C(NC1CCN(Cc2ccccc2)C1)c1noc2c1CN(S(=O)(=O)c1ccc(OC(F)(F)F)cc1)CC2 (stereo not shown) [Example 117, 5-(4-trifluoromethoxy-benzenesulfonyl)-4,5,6,7-tetrahydro-isoxazolo[4,5-c]pyridine-3-carboxylic acid (1-benzyl-pyrrolidin-3-yl)-amide] | – | – | 68% | 75%
COc1ccc(CNC(=S)N2CCc3onc(C(=O)NC4CCCC4)c3C2)cc1 [Example 127, 5-(4-methoxy-benzylthiocarbamoyl)-4,5,6,7-tetrahydro-isoxazolo[4,5-c]pyridine-3-carboxylic acid cyclopentyl amide] | – | – | – | 63%
COCCNC(=S)N1CCc2onc(C(=O)NCCc3ccccc3)c2C1 [Example 130, 5-(2-methoxy-ethylthiocarbamoyl)-4,5,6,7-tetrahydro-isoxazolo[4,5-c]pyridine-3-carboxylic acid phenethyl amide] | – | – | – | 67%
O=C(NCCc1ccccc1)c1noc2c1CN(C(=S)Nc1c(F)c(F)c(F)c(F)c1F)CC2 [Example 131, 5-pentafluorophenylthiocarbamoyl-4,5,6,7-tetrahydro-isoxazolo[4,5-c]pyridine-3-carboxylic acid phenethyl amide] | – | 73% | – | –
CC(NC(=S)N1CCc2onc(C(=O)NCCc3ccccc3)c2C1)c1ccccc1 (stereo not shown) [Example 132, 5-(1-phenyl-ethylthiocarbamoyl)-4,5,6,7-tetrahydro-isoxazolo[4,5-c]pyridine-3-carboxylic acid phenethyl amide] | – | – | – | 76%
O=C(Nc1ccccc1)c1noc2c1CN(Cc1ccc3ccccc3c1Br)CC2 [Example 135, 5-(1-bromo-naphthalen-2-ylmethyl)-4,5,6,7-tetrahydro-isoxazolo[4,5-c]pyridine-3-carboxylic acid phenyl amide] | – | – | – | 60%
O=C(c1noc2c1CN(S(=O)(=O)c1ccc(Cl)c(Cl)c1)CC2)N1CCN(c2nccs2)CC1 [Example 140, (5-(3,4-dichlorophenylsulfonyl)-4,5,6,7-tetrahydroisoxazolo[4,5-c]pyridin-3-yl)(4-(thiazol-2-yl)piperazin-1-yl)methanone] | – | – | 47% | 46%
Cc1cc(C)c(S(=O)(=O)N2CCc3onc(C(=O)N4CCN(c5nccs5)CC4)c3C2)c(C)c1 [Example 141, (5-(mesitylsulfonyl)-4,5,6,7-tetrahydroisoxazolo[4,5-c]pyridin-3-yl)(4-(thiazol-2-yl)piperazin-1-yl)methanone] | – | – | 58% | 41%
O=C(c1noc2c1CN(S(=O)(=O)c1cccc3ccccc13)CC2)N1CCN(c2nccs2)CC1 [Example 142, (5-(naphthalen-1-ylsulfonyl)-4,5,6,7-tetrahydroisoxazolo[4,5-c]pyridin-3-yl)(4-(thiazol-2-yl)piperazin-1-yl)methanone] | – | – | 30% | 31%
O=C(c1noc2c1CN(S(=O)(=O)c1ccc3ccccc3c1)CC2)N1CCN(c2nccs2)CC1 [Example 143, (5-(naphthalen-2-ylsulfonyl)-4,5,6,7-tetrahydroisoxazolo[4,5-c]pyridin-3-yl)(4-(thiazol-2-yl)piperazin-1-yl)methanone] | – | – | 29% | 44%
Cc1cc(C)c(S(=O)(=O)N2CCc3onc(C(=O)N4CCN(CCCN(C)C)CC4)c3C2)c(C)c1 [Example 144, (4-(3-(dimethylamino)propyl)piperazin-1-yl)(5-(mesitylsulfonyl)-4,5,6,7-tetrahydroisoxazolo[4,5-c]pyridin-3-yl)methanone dihydrochloride] | – | – | 21% | 24%
Cc1cc(C)c(S(=O)(=O)N2CCc3onc(C(=O)N4CCC(CCN5CCCC5)CC4)c3C2)c(C)c1 [Example 146, (5-(mesitylsulfonyl)-4,5,6,7-tetrahydroisoxazolo[4,5-c]pyridin-3-yl)(4-(2-(pyrrolidin-1-yl)ethyl)piperidin-1-yl)methanone] | – | – | 53% | 42%

— US8048879B2, “Substituted 4,5,6,7-tetrahydro-isoxazolo[4,5-c]pyridine compounds and use thereof for producing medicaments” (Gruenenthal GmbH, priority 2005, dated 2011)
